Source: patent publication US8778896B2, “Levoisovalerylspiramycin I, II or III, preparations, preparation methods and uses thereof” (Shenyang Tonglian Group Co., Ltd., priority 2010, dated 2014)
In brackets after ≈: the same amount, converted by molar mass.

How the values were obtained:
[1] = Acute toxicity on rats via oral administration; settings: 4500 mg/kg
Description: Both mice and rats take drugs orally (levoisovalerylspiramycin I, II and III prepared in Embodiment 1)
After observing the mice and rats for two days before test, and those without abnormal conditions is carried out test. Don't give anything to eat to mice and rats overnight before test. […] […] Observe those taking drugs for one week for toxic reaction and death.

enterococcus32 = assay: Curative effect on mouse with abdominal infection (ED50); type: in vivo, enterococcus; settings: Enterococcus, 168 h, enterococcus32, challenging dose 5.4 × 10^4 CFU/0.5 ml, deaths in 7 days, Bliss, read-out: ED50
Description: (§1) Test method: preparation of infection bacterial liquid: taking out the test bacterial liquid which is kept in a refrigerator at −80[…] to room temperature for about 1 h, then inoculating streptococcus pneumonia, pyogenic streptococcus and enterococcus absorbing 0.1 ml bacterial liquid respectively to 2 ml MH broth (add 10% inactivated horse serum), and inoculating 0.1 ml bacterial liquid of staphylococcus aureus to 2 ml MH broth according to the same method above; putting it in an incubator at 37[…] to be cultivated for 18 h, to obtain original bacterial liquid; diluting the original bacterial liquid with 5% gastric mucin to make animals infected with 100% lethal bacteria, to obtain infection bacterial liquid.
(§2) The clinical route of administration of carrimycin is proposed to be oral administration, thus intragastric administration is adopted in carrimychin test. Levoisovalerylspiramycin I (obtained in Embodiment 1) and of crystalline compound of levoisovalerylspiramycin I (prepared in Embodiment 27) are fed to animals via […].
(§3) After the mice are infected, respectively feed each mouse 0.2 ml via intragastric administration at 0.5 to 6 h, and they have no adverse reaction. Observe the number of deaths in 7 days, and calculate the 50% effective dose (ED50) of each drug for the infected mouse and compare the protective effect of drugs by Bliss program.

[2] = test system: streptococcus pneumoniae3; assay: MIC against the infecting test organism; type: cell-based, streptococcus pneumoniae; settings: read-out: MIC
[3] = test system: streptococcus pneumoniae18; assay: MIC against the infecting test organism; type: cell-based, streptococcus pneumoniae; settings: read-out: MIC
[4] = test system: pyogenic streptococcus 119; assay: MIC against the infecting test organism; type: cell-based; settings: read-out: MIC
staphylococcus aureus21 = assay: MIC against the infecting test organism; type: cell-based, staphylococcus aureus; settings: read-out: MIC
[5] = test system: streptococcus pneumoniae (112); assay: Clinical isolates, agar double dilution method; type: cell-based; settings: 112 clinical isolates of streptococcus pneumoniae; for MIC50: read-out: MIC50; for MIC90: read-out: MIC90
S. epidermidis (115) = assay: Clinical isolates, agar double dilution method; type: cell-based; settings: Staphylococcus epidermidis, 115 clinical isolates of S. epidermidis; for MIC50: read-out: MIC50; for MIC90: read-out: MIC90
[6] = test system: Chlamydia Trachomatis B/TW-5/OT; assay: Chlamydia in vitro MIC, McCoy cells, immunofluorescence; type: cell-based; settings: 48 hours, read-out: MIC
[7] = test system: Chlamydia Trachomatis D/UW-3/Cx; assay: as above; type: cell-based; settings: 48 hours, read-out: MIC
[8] = test system: Chlamydia Pneumoniae CWL-029; assay: Chlamydia in vitro MIC, HEp-2 cells, immunofluorescence; type: cell-based; settings: Chlamydia pneumoniae, 72 h, Chlamydia Pneumoniae CWL-029, HEp-2 cells, read-out: MIC
[9] = test system: Mycoplasma Urealyticum and Mycoplasma Pneumoniae strains; assay: Mycoplasma in vitro MIC (U-PPLO broth); type: cell-based; settings: for MIC: Mycoplasma, determined 4 times, final MIC (24 h), read-out: MIC; for Uu resistant effect: in words
Description: 1. Test methods: adding U-PPLO 0.8 ml to each pore of aseptic 12-pore cell culture plate (adding 0.9 ml to inoculum control pore and 1.0 ml to medium control pore).
2. Add 10^4CCU/ml Uu inoculum 0.1 ml to each experimental pore. The final dose in the pore is 10^3CCU/ml (the medium control pore will not be added with inoculum).
3. Divide into 3 groups (100 μg/ml, 10 μg/ml and 1 μg/ml antibiotic stock solution), Use aseptic Tip to add antibiotic for test to each pore: 100 μl, 50 μl, 25 μl, 12.5 μl according to the double degradation concentration gradient. (The inoculum and medium control pores will not be added with the antibiotic, and meanwhile the antibiotic control pore is arranged.)
4. Blend all pores evenly. Seal the culture plate by tapes and place it in a 37[…] box for culture.
5. On 17-24 hours after the test, observe and record the Uu growth situation. When Uu inoculum control pore presents a positive growth, the minimal antibiotic concentration, which can suppress the growth of Uu, is the MIC of sample.

[10] = test system: adult acute respiratory infections caused by sensitive bacteria; assay: Clinical test versus Azithromycin, multi-center random double blind; type: in vivo; settings: patients 18 to 65 years
Description: Adopt a multi-center, random, two blind, double simulation control test, which is carried out in 5 hospitals concurrently according to the unified clinical testing program.
1. Patients from 18 to 65 years old (men and women);
2. Sensitive acute respiratory infections caused by sensitive bacteria include acute bacterial pharyngitis, acute suppurative tonsillitis, acute tracheobronchitis, mild pneumonia and acute nasosinusitis etc;
3. Any subject shall sign an informed consent before being selected.
4. All subjects shall be contracepted in the research period and within at least 3 months upon being dosed.
1. Those with hepatic or renal insufficiency (Blood Cr>1.5 mg/dl and ALT>normal upper limit)
2. The women in pregnancy or lactation
3. Those with gastrointestinal tract diseases, who cannot take drugs orally.
4. Those who take antibacterial within one week before the selection.
According to statistics on the test results by statistics experts, the clinical efficacy (FAS) is: […]

12 strains of bacteria = assay: Protective effect on mouse infected with 12 strains of bacteria; type: in vivo; settings: in words
Description: as §1, §2, §3

## COC1C(O)CC(=O)OC(C)C/C=C/C=C/C(OC2CCC(N(C)C)C(C)O2)C(C)CC(CC=O)C1OC1OC(C)C(OC2CC(C)(O)C(OC(=O)CC(C)C)C(C)O2)C(N(C)C)C1O (centres unmarked) [Levoisovalerylspiramycin I, levoisovalerylspiramycin I]
[1]; rat, in vivo, po
  LD50 at 1 week: > 4500 mg/kg
[1]; rats, oral
  Mortality rate (%): 15%
[1]; rats, oral, deaths of 20 animals, observed one week
  mortality: 3
enterococcus32
  ED50: 77.5 mg/kg
[2]
  MIC: 0.12 µg/mL (≈ 0.129 µM)
[3]
  MIC: 0.03 µg/mL (≈ 0.0324 µM)
[4]
  MIC: 0.12 µg/mL (≈ 0.129 µM)
Staphylococcus aureus21
  MIC: 0.5 µg/mL (≈ 0.539 µM)
[5]
  MIC50: 0.12 µg/mL (≈ 0.129 µM)
  MIC90: 2 µg/mL (≈ 2.16 µM)
S. epidermidis (115)
  MIC50: 1 µg/mL (≈ 1.08 µM)
  MIC90: 32 µg/mL (≈ 34.5 µM)
[6]
  MIC: 0.25 µg/mL (≈ 0.27 µM)
[7]
  MIC: 0.25 µg/mL (≈ 0.27 µM)
[8]
  MIC: 0.016 µg/mL (≈ 0.0173 µM)
[9]
  MIC: 0.025 to 0.125 µg/mL (≈ 0.027 to 0.135 µM)
  Uu resistant effect: favorable Uu resistant effect
[10]
  adverse reaction: 2.5%
  clearance of pathogens: 97.56%
  clinical efficacy (FAS): 92.30%
12 strains of bacteria
  protective effect (curative effect) on infected mouse: good protective effect

## COC1C(OC(C)=O)CC(=O)OC(C)C/C=C/C=C/C(OC2CCC(N(C)C)C(C)O2)C(C)CC(CC=O)C1OC1OC(C)C(OC2CC(C)(O)C(OC(=O)CC(C)C)C(C)O2)C(N(C)C)C1O (centres unmarked) [Levoisovalerylspiramycin II, levoisovalerylspiramycin II]
[1]; rat, in vivo, po
  LD50 at 1 week: > 4500 mg/kg
[1]; rat, in vivo, po, 1 week
  Mortality rate (%): 15%
  mortality: 3
enterococcus32
  ED50: 70.2 mg/kg
[2]
  MIC: 0.12 µg/mL (≈ 0.124 µM)
[3]
  MIC: 0.03 µg/mL (≈ 0.031 µM)
[4]
  MIC: 0.12 µg/mL (≈ 0.124 µM)
Staphylococcus aureus21
  MIC: 0.5 µg/mL (≈ 0.516 µM)
[5]
  MIC50: 0.12 µg/mL (≈ 0.124 µM)
  MIC90: 2 µg/mL (≈ 2.06 µM)
S. epidermidis (115)
  MIC50: 1 µg/mL (≈ 1.03 µM)
  MIC90: 64 µg/mL (≈ 66 µM)
[6]
  MIC: 0.25 µg/mL (≈ 0.258 µM)
[7]
  MIC: 0.25 µg/mL (≈ 0.258 µM)
[8]
  MIC: ≤ 0.016 µg/mL
[9]
  MIC: 0.025 to 0.125 µg/mL (≈ 0.0258 to 0.129 µM)
  Uu resistant effect: favorable Uu resistant effect
[10]
  adverse reaction: 2.5%
  clearance of pathogens: 97.56%
  clinical efficacy (FAS): 92.30%

## CCC(=O)OC1CC(=O)OC(C)C/C=C/C=C/C(OC2CCC(N(C)C)C(C)O2)C(C)CC(CC=O)C(OC2OC(C)C(OC3CC(C)(O)C(OC(=O)CC(C)C)C(C)O3)C(N(C)C)C2O)C1OC (centres unmarked) [Levoisovalerylspiramycin III, levoisovalerylspiramycin III]
[1]; rat, in vivo, po
  LD50 at 1 week: > 4500 mg/kg
[1]; rat, in vivo, po, 1 week
  Mortality rate (%): 15%
  mortality: 3
enterococcus32
  ED50: 70.2 mg/kg
[2]
  MIC: 0.12 µg/mL (≈ 0.122 µM)
[3]
  MIC: 0.03 µg/mL (≈ 0.0305 µM)
[4]
  MIC: 0.12 µg/mL (≈ 0.122 µM)
Staphylococcus aureus21
  MIC: 0.5 µg/mL (≈ 0.509 µM)
[5]
  MIC50: 0.12 µg/mL (≈ 0.122 µM)
  MIC90: 4 µg/mL (≈ 4.07 µM)
S. epidermidis (115)
  MIC50: 1 µg/mL (≈ 1.02 µM)
  MIC90: 32 µg/mL (≈ 32.5 µM)
[6]
  MIC: 0.25 µg/mL (≈ 0.254 µM)
[7]
  MIC: 0.25 µg/mL (≈ 0.254 µM)
[8]
  MIC: 0.016 µg/mL (≈ 0.0163 µM)
[9]
  Uu resistant effect: favorable Uu resistant effect
[10]
  adverse reaction: 2.5%
  clearance of pathogens: 97.56%
  clinical efficacy (FAS): 92.30%

## CC[C@H]1OC(=O)[C@H](C)[C@@H](O[C@H]2C[C@@](C)(OC)[C@@H](O)[C@H](C)O2)[C@H](C)[C@@H](O[C@@H]2O[C@H](C)C[C@H](N(C)C)[C@H]2O)[C@](C)(O)C[C@@H](C)CN(C)[C@H](C)[C@@H](O)[C@]1(C)O [azithromycin, reference compound]
enterococcus32
  ED50: 147 mg/kg
[2]
  MIC: 0.12 µg/mL (≈ 0.16 µM)
[3]
  MIC: 0.06 µg/mL (≈ 0.0801 µM)
[4]
  MIC: 0.25 µg/mL (≈ 0.334 µM)
Staphylococcus aureus21
  MIC: 4 µg/mL (≈ 5.34 µM)
[5]
  MIC50: 0.25 µg/mL (≈ 0.334 µM)
  MIC90: 8 µg/mL (≈ 10.7 µM)
S. epidermidis (115)
  MIC50: 8 µg/mL (≈ 10.7 µM)
  MIC90: > 64 µg/mL
[6]
  MIC: 0.5 µg/mL (≈ 0.668 µM)
[7]
  MIC: 0.25 µg/mL (≈ 0.334 µM)
[8]
  MIC: 0.032 µg/mL (≈ 0.0427 µM)
[10]
  adverse reaction: 7.6%
  clearance of pathogens: 92.86%
  clinical efficacy (FAS): 89.61%

## CC[C@H]1OC(=O)[C@H](C)[C@@H](O[C@H]2C[C@@](C)(OC)[C@@H](O)[C@H](C)O2)[C@H](C)[C@@H](O[C@@H]2O[C@H](C)C[C@H](N(C)C)[C@H]2O)[C@](C)(O)C[C@@H](C)C(=O)[C@H](C)[C@@H](O)[C@]1(C)O [erythrocin, reference compound]
enterococcus32
  ED50: 175 mg/kg
[2]
  MIC: 1 µg/mL (≈ 1.36 µM)
[3]
  MIC: 0.06 µg/mL (≈ 0.0818 µM)
[4]
  MIC: 0.5 µg/mL (≈ 0.681 µM)
Staphylococcus aureus21
  MIC: 4 µg/mL (≈ 5.45 µM)
[5]
  MIC50: 0.25 µg/mL (≈ 0.341 µM)
  MIC90: 64 µg/mL (≈ 87.2 µM)
S. epidermidis (115)
  MIC50: 8 µg/mL (≈ 10.9 µM)
  MIC90: > 64 µg/mL
[6]
  MIC: 0.5 µg/mL (≈ 0.681 µM)
[7]
  MIC: 0.5 µg/mL (≈ 0.681 µM)
[8]
  MIC: ≤ 0.016 µg/mL
[9]
  MIC: 5 µg/mL (≈ 6.81 µM)
  Uu resistant effect: poorest
